Results reported in paper PMC4734667 (PLoS ONE, 2016).
≈ marks a conversion by molar mass, not a printed value. Where “and” joins values, the source holds several entries; their conditions need not be identical. Identical values can stand only once. Entries after “also recorded” stand apart in the source; their conditions may differ. Like-named read-outs stand apart in the source and are kept apart here.

Assays:
human GluN2D = target: T1, human GluN2D (Homo sapiens, UniProt O15399+Q05586); test: Ca2+ fluorescence (fluo-8) assay in HEK cells expressing GluN2D; format: cell-based; conditions: for inhibition at 10 µM: HEK293, 10 μM compound, negative = increase in Ca2+ response, read-out: GluN2D % Inhib. @ 10 μM ± SEM (n)
T1 construct: expressed in transfected cells; host or cells: HEK cells
T1 sequence (O15399 28-1336, other chains not shown): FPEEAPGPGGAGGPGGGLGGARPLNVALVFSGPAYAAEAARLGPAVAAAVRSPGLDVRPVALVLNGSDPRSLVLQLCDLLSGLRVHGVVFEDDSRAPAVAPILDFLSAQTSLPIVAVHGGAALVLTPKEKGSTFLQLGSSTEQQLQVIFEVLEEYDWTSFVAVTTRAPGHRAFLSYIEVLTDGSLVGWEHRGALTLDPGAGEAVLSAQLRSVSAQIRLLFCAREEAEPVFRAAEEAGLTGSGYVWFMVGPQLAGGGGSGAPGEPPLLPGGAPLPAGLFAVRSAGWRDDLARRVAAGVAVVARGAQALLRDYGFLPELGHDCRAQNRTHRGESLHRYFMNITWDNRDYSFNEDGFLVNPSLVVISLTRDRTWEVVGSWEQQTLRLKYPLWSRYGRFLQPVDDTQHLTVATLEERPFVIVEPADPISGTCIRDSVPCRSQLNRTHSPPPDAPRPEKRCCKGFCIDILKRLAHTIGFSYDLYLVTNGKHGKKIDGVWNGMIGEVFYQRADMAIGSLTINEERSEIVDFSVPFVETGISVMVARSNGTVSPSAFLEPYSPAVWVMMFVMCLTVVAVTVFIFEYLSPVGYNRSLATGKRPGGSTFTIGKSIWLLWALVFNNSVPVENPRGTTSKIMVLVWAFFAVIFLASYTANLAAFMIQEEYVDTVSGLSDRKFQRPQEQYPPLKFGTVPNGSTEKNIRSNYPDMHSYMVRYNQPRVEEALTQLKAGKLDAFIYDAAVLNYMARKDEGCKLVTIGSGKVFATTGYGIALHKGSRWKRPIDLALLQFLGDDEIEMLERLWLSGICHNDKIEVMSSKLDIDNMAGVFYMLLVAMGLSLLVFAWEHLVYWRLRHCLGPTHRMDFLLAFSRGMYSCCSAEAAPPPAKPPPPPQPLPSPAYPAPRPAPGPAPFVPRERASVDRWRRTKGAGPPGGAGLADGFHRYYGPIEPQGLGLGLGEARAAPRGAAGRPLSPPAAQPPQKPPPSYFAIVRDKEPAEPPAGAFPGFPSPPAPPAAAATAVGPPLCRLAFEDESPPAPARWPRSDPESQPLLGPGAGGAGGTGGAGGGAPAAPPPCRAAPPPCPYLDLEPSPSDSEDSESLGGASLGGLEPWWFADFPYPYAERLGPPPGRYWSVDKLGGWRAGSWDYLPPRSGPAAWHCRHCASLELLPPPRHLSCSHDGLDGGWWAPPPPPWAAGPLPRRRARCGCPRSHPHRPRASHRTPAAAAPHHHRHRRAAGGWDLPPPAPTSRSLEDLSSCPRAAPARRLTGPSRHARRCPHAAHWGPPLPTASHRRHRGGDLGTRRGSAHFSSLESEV

human GluN2B = target: T2, human GluN2B (Homo sapiens, UniProt Q05586+Q13224); test: Ca2+ fluorescence (fluo-8) assay in HEK cells expressing GluN2B; format: cell-based; conditions: for inhibition at 10 µM: HEK293, 10 μM compound, negative = increase in Ca2+ response, read-out: GluN2B % Inhib. @ 10 μM ± SEM (n)
T2 construct: expressed in transfected cells; host or cells: HEK cells
T2 sequence (Q13224 27-1484, other chains not shown): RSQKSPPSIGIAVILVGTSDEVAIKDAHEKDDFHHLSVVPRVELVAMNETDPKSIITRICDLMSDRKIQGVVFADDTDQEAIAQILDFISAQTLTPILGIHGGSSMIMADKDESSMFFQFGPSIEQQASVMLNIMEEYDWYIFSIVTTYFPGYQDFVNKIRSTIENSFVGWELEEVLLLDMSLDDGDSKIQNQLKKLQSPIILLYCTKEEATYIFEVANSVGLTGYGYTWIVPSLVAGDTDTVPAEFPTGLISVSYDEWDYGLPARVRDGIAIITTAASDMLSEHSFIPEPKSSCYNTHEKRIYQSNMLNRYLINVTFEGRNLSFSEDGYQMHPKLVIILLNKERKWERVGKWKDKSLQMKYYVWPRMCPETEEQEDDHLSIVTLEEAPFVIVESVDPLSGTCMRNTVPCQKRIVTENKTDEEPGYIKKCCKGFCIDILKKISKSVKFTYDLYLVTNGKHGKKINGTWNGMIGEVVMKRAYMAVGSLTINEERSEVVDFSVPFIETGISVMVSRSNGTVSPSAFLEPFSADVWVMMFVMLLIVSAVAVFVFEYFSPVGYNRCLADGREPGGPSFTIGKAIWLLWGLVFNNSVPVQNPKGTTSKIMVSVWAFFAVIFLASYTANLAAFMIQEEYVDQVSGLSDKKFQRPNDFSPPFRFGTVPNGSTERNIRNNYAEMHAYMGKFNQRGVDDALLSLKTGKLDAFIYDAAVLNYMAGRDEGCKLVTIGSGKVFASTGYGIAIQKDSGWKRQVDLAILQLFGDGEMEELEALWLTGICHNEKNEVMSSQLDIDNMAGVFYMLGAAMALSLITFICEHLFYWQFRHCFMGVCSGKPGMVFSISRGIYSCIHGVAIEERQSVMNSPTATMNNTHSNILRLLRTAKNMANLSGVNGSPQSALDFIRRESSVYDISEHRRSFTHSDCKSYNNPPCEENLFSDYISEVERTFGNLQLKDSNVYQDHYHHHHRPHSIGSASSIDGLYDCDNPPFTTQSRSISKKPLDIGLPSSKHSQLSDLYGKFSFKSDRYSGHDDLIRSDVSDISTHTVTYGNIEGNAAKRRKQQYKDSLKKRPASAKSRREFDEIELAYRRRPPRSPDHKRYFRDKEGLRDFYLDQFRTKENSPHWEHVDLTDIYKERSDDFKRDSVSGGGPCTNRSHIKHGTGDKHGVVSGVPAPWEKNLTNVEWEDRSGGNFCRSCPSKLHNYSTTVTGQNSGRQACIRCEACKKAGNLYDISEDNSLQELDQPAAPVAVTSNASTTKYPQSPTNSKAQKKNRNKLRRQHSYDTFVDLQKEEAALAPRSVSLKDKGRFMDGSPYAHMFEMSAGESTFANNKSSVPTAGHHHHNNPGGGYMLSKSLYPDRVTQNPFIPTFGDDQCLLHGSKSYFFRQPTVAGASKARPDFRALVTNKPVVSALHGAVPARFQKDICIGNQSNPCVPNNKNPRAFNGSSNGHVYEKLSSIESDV

human GluN2A = target: T3, human GluN2A (Homo sapiens, UniProt Q05586+Q12879); test: Ca2+ fluorescence (fluo-8) assay in HEK cells expressing GluN2A; format: cell-based; conditions: for IC50: read-out: GluN2A IC50 (nM) ± SEM (n); for inhibition at 10 µM: HEK293, read-out: inhibition of GluN2A activity at 10 μM, 10 μM compound, HEK cell assay
T3 construct: host or cells: HEK293, tetracycline-induced
T3 sequence (Q12879 23-1464, other chains not shown): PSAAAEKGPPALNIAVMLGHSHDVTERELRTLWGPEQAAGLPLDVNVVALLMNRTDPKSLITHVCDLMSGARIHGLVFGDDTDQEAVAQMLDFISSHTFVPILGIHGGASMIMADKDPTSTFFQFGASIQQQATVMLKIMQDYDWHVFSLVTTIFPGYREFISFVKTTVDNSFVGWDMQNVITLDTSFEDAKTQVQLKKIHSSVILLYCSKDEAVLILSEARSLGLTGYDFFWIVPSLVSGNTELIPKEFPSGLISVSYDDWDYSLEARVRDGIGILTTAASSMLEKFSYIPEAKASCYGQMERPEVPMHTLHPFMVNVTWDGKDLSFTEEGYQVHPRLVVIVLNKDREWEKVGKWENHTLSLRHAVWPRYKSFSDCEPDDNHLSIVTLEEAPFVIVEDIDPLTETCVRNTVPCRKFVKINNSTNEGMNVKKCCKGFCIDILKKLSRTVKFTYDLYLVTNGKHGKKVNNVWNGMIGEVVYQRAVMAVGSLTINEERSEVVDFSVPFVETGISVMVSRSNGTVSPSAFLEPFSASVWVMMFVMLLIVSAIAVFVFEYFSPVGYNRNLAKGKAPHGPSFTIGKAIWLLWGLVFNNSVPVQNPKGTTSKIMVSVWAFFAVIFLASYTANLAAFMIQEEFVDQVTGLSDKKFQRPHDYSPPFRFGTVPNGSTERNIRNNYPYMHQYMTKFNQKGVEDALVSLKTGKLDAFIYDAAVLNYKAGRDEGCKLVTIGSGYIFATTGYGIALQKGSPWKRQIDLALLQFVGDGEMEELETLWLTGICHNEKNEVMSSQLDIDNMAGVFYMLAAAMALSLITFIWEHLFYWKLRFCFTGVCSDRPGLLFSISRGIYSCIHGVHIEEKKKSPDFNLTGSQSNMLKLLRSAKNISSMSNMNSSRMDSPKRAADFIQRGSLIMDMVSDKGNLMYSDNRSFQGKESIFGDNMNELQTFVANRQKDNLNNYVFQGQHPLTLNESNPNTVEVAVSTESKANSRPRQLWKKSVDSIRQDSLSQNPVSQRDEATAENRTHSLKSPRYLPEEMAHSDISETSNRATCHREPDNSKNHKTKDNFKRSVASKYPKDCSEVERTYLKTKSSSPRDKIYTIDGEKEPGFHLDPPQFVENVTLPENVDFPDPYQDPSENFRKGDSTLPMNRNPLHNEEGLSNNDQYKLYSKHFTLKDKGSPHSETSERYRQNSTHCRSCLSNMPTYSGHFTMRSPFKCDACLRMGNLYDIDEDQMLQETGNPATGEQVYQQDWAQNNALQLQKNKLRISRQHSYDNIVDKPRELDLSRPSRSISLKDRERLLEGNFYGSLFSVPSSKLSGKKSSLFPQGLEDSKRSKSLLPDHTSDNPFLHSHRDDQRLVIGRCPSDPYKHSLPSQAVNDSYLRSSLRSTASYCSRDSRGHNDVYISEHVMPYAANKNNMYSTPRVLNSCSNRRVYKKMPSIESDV
Procedure: HEK293 cells expressing the human GRIN1/GRIN2A genes (Chantest Catalog #: CT6120) were grown as an adherent monolayer at 37°C, 5% CO2 in DMEM/Ham’s F12 + 10% tetracycline-screened FBS (Hyclone SH3007.03T) and 500 μg/ml G418. […] To prepare the cells for an experiment, they were rinsed with Dulbecco’s PBS (Ca^2+ and Mg^2+ free) and detached from the flask with TrypLE™ Express (Life Technologies, Carlsbad, CA) using the manufacturer’s recommended methods. Cells collected from the flask were washed twice in Ca^2+/Mg^2+-free Hanks Balanced Salt Solution + 20 mM HEPES (HBSS), and counted and assessed for viability with trypan blue. Washed cells were then dye-loaded by resuspending in Fluo-8/AM calcium sensitive dye plus Component B (AAT Bioquest, Sunnyvale, CA) diluted in HBSS. […] The cell plates were centrifuged at 200 x g, for 2 minutes at 21°C, to create a monolayer of cells at the bottom of the wells.
To initiate an assay, 10 μl of test compound or buffer was added to each well of the cell plate and pre-incubated for 10 minutes in the dark. After 10 minutes, the cell plate was placed in a FDSS 6000 plate reader (Hamamatsu Photonics, Middlesex, NJ); baseline fluorescence readings were collected for 20 seconds. Next, 25 μl of agonist solution (3 μM glutamate, 3 μM glycine, and 1 mM Ca^2+ in HBSS) was added and the change in fluorescence was recorded for 3 minutes.
Results were calculated by computing the ratio of maximum fluorescence achieved during agonist-addition phase vs. baseline fluorescence.

NMDA receptor = NMDA receptor (Rattus norvegicus, UniProt P35439+Q00959); test: NMDA receptor-mediated fEPSPs in rat hippocampal slices (CA1, MEA); format: cell-based; conditions: 30 μM D-AP5
Excerpt: Multi-electrode arrays (MEA) technology was used in the recording of hippocampal slices from 3 to 4 week-old male and female Sprague- Dawley rats (Elevage Janvier, Le Genest St Isle, France).
The rats were sacrificed by fast decapitation, without previous anesthesia. The brain was quickly removed and soaked in ice-cold oxygenated buffer with the following composition in mM: KCl 2, NaH2PO4 1.2, MgCl2 7, CaCl2 0.5, NaHCO3 26, glucose 11, and saccharose 250. […] Slice were placed in the center of a 3D-MEA to cover the electrode field (1.4 mm^2) and then immobilized with a netting ballast. […] NBQX (10 μM) was added to inhibit AMPA receptors. The bath was ground connected with a 1 M NaCl-Agar bridge.
All data were recorded with a MEA set-up from Multi Channel Systems MCS GmbH (Reutlingen, Germany) composed of a 4-channel stimulus generator and a 60-channel amplifier head-stage connected to a 60-channel A/D card. […]
Following visual observation through a CCD camera, one of the electrodes identified in the CA3 field (at CA3/CA1 border) was disconnected from its amplifier and used to stimulate Schaeffer collaterals. […] Simultaneous evoked field potentials were recorded from 3 to 6 electrodes in the CA1 stratum radiatum region, corresponding to the physiological propagation of the stimulus along the Schaffer collateral pathway. […]

EP4 = target: T4, EP4 (Homo sapiens, UniProt P35408); test: CEREP-80 panel ligand binding, EP4; conditions: read-out: inhibition of EP4 agonist binding
T4 construct: CEREP (panel CEREP-80)

[1] = Stability in pooled human liver microsomes; format: in vitro ADME; conditions: pH 7.4, 1 μM compound, read-out: HLM t½
Procedure: Human liver microsomes were prepared from pooled cryopreserved human hepatocytes (HEP10™, catalog number HMCS10, lot # HuE106, Life Technologies Corporation, Grand Island, NY). According to the vendor, the liver cells from lot HuE106 were derived from tissue obtained from accredited institutions. Consent was obtained by these institutions from the donors or the donor’s legal next of kin, for use of the tissue and its derivatives for research purposes. Microsomes were diluted into 66.7 mM potassium phosphate buffer (pH 7.4) to an approximate concentration of 0.5 mg/mL of microsomal protein. Test compounds (1 μM) were pre-incubated with the microsomes for 5 min at 37°C and then the reaction initiated by addition of […]. After different times up to 30 min, the reactions were quenched, clarified by centrifugation and remaining compound quantified by LC-MS/MS.

Kinetic solubility = format: physicochemical; conditions: phosphate buffered saline, aqueous buffer, kinetic from dmso stock; in solution by HPLC after dissolution in DMSO and addition to saline
Procedure: Compounds were prepared as stock solutions at 20 mM in DMSO and diluted in DMSO to give a range of test concentrations 100-fold greater than final. Compounds were diluted 100-fold into phosphate buffered saline and incubated during mild shaking for 90 min at room temperature. Solutions were filtered through multiscreen solubility filter plate and the filtrate analyzed for compound concentration by HPLC-UV/PDA or LC-MS/MS.

5-HT2A = target: T5, 5-HT2A (Homo sapiens, UniProt P28223); test: CEREP-80 panel ligand binding, 5-HT2A; conditions: read-out: inhibition of 5-HT2A agonist binding
T5 construct: CEREP (panel CEREP-80)
T5 sequence (P28223 whole entry): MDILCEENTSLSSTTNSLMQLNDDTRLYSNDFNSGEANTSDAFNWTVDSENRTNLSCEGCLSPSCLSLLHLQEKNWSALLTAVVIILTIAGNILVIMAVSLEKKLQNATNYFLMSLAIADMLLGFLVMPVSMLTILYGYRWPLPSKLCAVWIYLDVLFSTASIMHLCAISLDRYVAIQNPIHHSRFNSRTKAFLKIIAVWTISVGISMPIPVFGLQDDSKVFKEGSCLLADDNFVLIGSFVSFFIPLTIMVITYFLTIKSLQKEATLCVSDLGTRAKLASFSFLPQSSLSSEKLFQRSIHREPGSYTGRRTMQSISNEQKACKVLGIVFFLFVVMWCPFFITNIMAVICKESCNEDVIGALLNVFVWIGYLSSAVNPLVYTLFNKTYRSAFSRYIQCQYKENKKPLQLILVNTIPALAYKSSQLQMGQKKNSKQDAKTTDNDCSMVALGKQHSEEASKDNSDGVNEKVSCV

AMPA receptor = test: AMPA receptor-mediated synaptic currents of pyramidal neurons in mouse visual cortex slices; format: cell-based; conditions: in the presence of 50 μM compound; controls 118±16 pA
Procedure: […]. […] […].
Wild-type (WT) mice and GRIN2A knock-out (KO) male mice were bred in house at Boston Children’s Hospital. The GRIN2A-KO colony was derived from mice originally obtained from M. Mishina (1995, University of Tokyo, Japan). All procedures using these mice were approved by the Boston Children’s Hospital Institutional Animal Care and Use Committee. Methods used were previously described in [30] and are summarized below.
Coronal visual cortical slices ([…]) were prepared from postnatal day (P)22–31 male mice following decapitation under isoflurane anesthesia. […]
Layer 2/3 pyramidal neurons were selected based on morphology under infrared differential interference contrast microscopy and their identity confirmed from a brief train of action potentials recorded prior to initiating voltage-clamp recordings. […] All data were acquired and analyzed using custom- made procedures in Igor-Pro Software (WaveMetrics, Lake Oswego, Oregon).
To estimate the relative contribution of NMDA and AMPA receptors to the synaptic current, the amplitude was measured at the time of the peak current at -100 mV for the AMPA receptor-mediated current and at the time point after the current at -100 mV had decayed to less than 5% of its peak amplitude for the NMDA receptor-mediated current. […]

MDR1 = test: in vitro; format: in vitro ADME; conditions: dog, MDCK-MDR1; for Papp A→B: compound added on apical side (A-B), read-out: MDCK A-B permeability; for Papp B→A: compound added on basal side (B-A), read-out: MDCK B-A permeability
Procedure: MDCK cells transfected with MDR1 were maintained in monolayer culture for 3–4 days in 24-well transporter plates. Cultures with average TEER values of 600–800 Ohm x cm^2 were utilized for experimentation. Test compound was added to either the apical or basal membrane chamber and then efflux across the monolayer was monitored by quantifying compound with LC-MS/MS.

[2] = tested on: panel of receptors and enzymes relevant to CNS pharmacology (CEREP-80); test: CEREP-80 panel ligand binding, remainder of the panel; conditions: 1 μM
Excerpt: […]. […] […]

5-HT1B = target: T6, 5-HT1B (Rattus norvegicus, UniProt P28564); test: CEREP-80 panel ligand binding, 5-HT1B; conditions: read-out: inhibition of 5-HT1B antagonist binding
T6 construct: CEREP (panel CEREP-80)
T6 sequence (P28564 whole entry): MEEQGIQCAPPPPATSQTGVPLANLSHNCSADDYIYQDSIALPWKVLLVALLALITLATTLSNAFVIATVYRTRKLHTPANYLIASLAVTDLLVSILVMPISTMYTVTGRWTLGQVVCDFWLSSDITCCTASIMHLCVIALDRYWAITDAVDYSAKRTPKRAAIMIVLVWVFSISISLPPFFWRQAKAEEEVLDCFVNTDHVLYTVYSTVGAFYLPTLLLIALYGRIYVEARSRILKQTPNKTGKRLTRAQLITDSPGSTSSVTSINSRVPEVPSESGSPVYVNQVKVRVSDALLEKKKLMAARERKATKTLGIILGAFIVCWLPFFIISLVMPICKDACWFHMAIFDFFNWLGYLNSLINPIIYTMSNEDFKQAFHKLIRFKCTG

uninjected oocytes = test: Endogenous currents in control (uninjected) oocytes; format: cell-based, Xenopus; conditions: concentrations up to 10 μM
Procedure: The cells were then gently aspirated with a Pasteur pipette to remove the follicular tissue; this was followed by washing three times with OR-2 to remove all traces of collagenase. The oocytes were then washed in ND-96 (96 mM NaCl, 2 mM KCl, 1.8 mM CaCl2, 1 mM MgCl2, 5 mM HEPES, 50 ng/L gentamycin, 100 units/ml penicillin and 100 μg/ml streptomycin; pH 7.6) three times and this was followed by incubation in ND-96 at room temperature with mild agitation for 15 minutes; subsequently they were stored for at least 2 hours at 16°C before sorting and selection for injection. Oocytes selected for injection were incubated overnight in ND-96 at 16°C.
Electrodes were filled with 3 M KCl and had resistances that ranged from 0.2–1 MΩ. All measurements were made at a holding potential of -40 mV. Cells were continuously perfused with oocyte recording solution containing 90 mM NaCl, 1 mM KCl, 0.5 mM BaCl2, and 10 mM HEPES (Ph 7.4). […] Co-agonists were applied until a plateau was reached, and test compounds were then added in the continued presence of co-agonists until a new plateau was reached. […] Fraction of current remaining was calculated as [(current in presence of test compound–background current) / (co-agonist current–background current)] and IC50 values were computed using Prism 6.0 (Graphpad).

[3] = tested on: NMDA receptor (NMDA + glycine evoked currents); test: Whole-cell manual patch clamp of rat cortical neurons in primary culture; format: cell-based; conditions: 10 μM compound; NMDA 100 μM + glycine 10 μM; +40 mV; mean ± SEM
Excerpt: Cortical neurons isolated from E18 rat embryos and cultured for two weeks were examined in whole-cell manual patch clamp experiments.
Cryopreserved E-18 rat cortical neurons (GIBCO A10840-02) were purchased from Life Technologies Italia (Monza, Italy).
Cortical neurons were thawed and plated at 5x10^4 or 10x10^4 cells/well in 35 x 100 mm tissue culture dishes containing poly-D-lysine treated glass coverslips, and maintained in the media and conditions recommended by the manufacturer for 13–15 days. […] Glycine (10 μM) was added in the extracellular solution or in the NMDA solution. Cells were patch clamped in the whole-cell configuration with a holding potential of -70 mV stepping once every minute to +20 or +40 mV for 10 s. Starting 1.5 s after each voltage step, 100 μM NMDA plus 10 μM glycine was applied using rapid local perfusion (RSC-200, Bio-Logic Science Instruments, Claix, France). Currents were evaluated at peak during the NMDA application, and current inhibition was computed using Prism software (GraphPad) once steady state was achieved.

[4] = inhibition of Ca2+ response, HEK cells, glutamate and glycine 3 μM each, read-out: GluN2D IC50 (nM) ± SEM (n)
[5] = inhibition of Ca2+ response, HEK cells, glutamate and glycine 3 μM each, read-out: GluN2B IC50 (nM) ± SEM (n)
[6] = inhibition of Ca2+ response, HEK cells, glutamate and glycine 3 μM each

## O=C(O)c1cc(=O)c2c(Cl)cc(Cl)cc2[nH]1 [5,7-DCKA, reference compound]
Human GluN2D; [4]
  IC50: > 10000 nM
Human GluN2B; [5]
  IC50: 8400 ± 1400 nM
Human GluN2A; [6]
  IC50: 1170 ± 230 nM

## N[C@@H](Cc1ccccn1)c1ccccc1 [ARL-15896, reference compound]
Human GluN2D; [4]
  IC50: 25000 nM
Human GluN2B; [5]
  IC50: 510000 nM

## C[C@@H]([C@@H](O)c1ccc(O)cc1)N1CCC(O)(c2ccccc2)CC1 [CP-101,606, reference compound]
Human GluN2D; [4]
  IC50: > 10000 nM
Human GluN2A; [6]
  IC50: > 10000 nM

## NC(CCCP(=O)(O)O)C(=O)O [D-AP5]
NMDA receptor
  block of fEPSPs by D-AP5 at the conclusion of each experiment: completely blocked

## C[C@]12N[C@H](Cc3ccccc31)c1ccccc12 [MK-801, reference compound]
Human GluN2D
  IC50: 87 ± 3 nM
Human GluN2B
  IC50: 75 ± 4 nM

## Cc1ncc(CNC(=O)c2cnc(CNS(=O)(=O)c3ccc(F)c(Cl)c3)cn2)s1 [MPX-004, 5-(((3-chloro-4-fluorophenyl)sulfonamido)methyl)-N-((2-methylthiazol-5-yl)methyl)pyrazine-2-carboxamide]
EP4
  inhibition at 1 µM: 27%
[1]
  half-life at 1 μM: 53 min
Kinetic solubility
  solubility at 90 min: 16 µM (≈ 7.29 µg/mL)
5-HT2A
  inhibition at 1 µM: 31%
AMPA receptor
  AMPA receptor-mediated synaptic currents: 118±21 pA
MDR1
  Papp A→B: 17.3 ×10⁻⁶ cm/s
  Papp B→A: 66.1 ×10⁻⁶ cm/s
[2]
  effects on binding of ligands in the remainder of the panel: less than 25%
5-HT1B
  inhibition at 1 µM: 35%

## Cc1ncc(CNC(=O)c2cnc(CNS(=O)(=O)c3ccc(F)c(F)c3)c(C)n2)s1 [MPX-007]
[1]
  half-life at 1 μM: 63 min
Kinetic solubility
  solubility at 90 min: 68 µM (≈ 30.8 µg/mL)
MDR1
  Papp A→B: 14.2 ×10⁻⁶ cm/s
  Papp B→A: 76.8 ×10⁻⁶ cm/s
Uninjected oocytes
  inhibition of currents in control (uninjected) oocytes: no effect; also recorded: No inhibition

## O=C(O)[C@@H]1[C@H](C(=O)O)NCCN1C(=O)c1ccc2c(ccc3ccccc32)c1 [PPDA, reference compound]
Human GluN2D; [4]
  IC50: 34800 nM
Human GluN2B; [5]
  IC50: 8490 ± 1000 nM
Human GluN2A; [6]
  IC50: 4860 ± 960 nM

## O=C(NNC(=O)c1ccc(CNS(=O)(=O)c2ccc(F)c(Cl)c2)cc1)c1ccccc1 [TCN-201, 3-chloro-4-fluoro-N-[4-[[2-(phenylcarbonyl)hydrazino]carbonyl]benzyl]benzenesulfonamide, reference compound]
[1]
  half-life at 1 μM: 19 min
Kinetic solubility
  solubility at 90 min: 8 µM (≈ 3.7 µg/mL)
MDR1
  Papp A→B: 7.5 ×10⁻⁶ cm/s
  Papp B→A: 58.9 ×10⁻⁶ cm/s

## Cc1ncc(CNC(=O)c2ccc(CNS(=O)(=O)c3ccc(F)c(Cl)c3)cc2)s1 [compound 2]
Human GluN2D
  inhibition at 10 µM: -6 ± 2%
Human GluN2B
  inhibition at 10 µM: 4 ± 1%
Human GluN2A
  inhibition at 10 µM: > 95%
  IC50: 398 ± 90 nM

## Cc1ncc(CNC(=O)c2ccc(CNS(=O)(=O)c3ccc(F)c(Cl)c3)cn2)s1 [compound 3]
Human GluN2D
  inhibition at 10 µM: -6 ± 2%
Human GluN2B
  inhibition at 10 µM: 1 ± 1%
Human GluN2A
  inhibition at 10 µM: > 95%
  IC50: 75 ± 13 nM

## Cc1ncc(CNC(=O)c2cnc(CNS(=O)(=O)c3ccc(F)c(F)c3)cn2)s1 [compound 5]
Human GluN2D
  inhibition at 10 µM: -10 ± 5%
Human GluN2B
  inhibition at 10 µM: -8 ± 2%
Human GluN2A
  inhibition at 10 µM: > 95%
  IC50: 116 ± 22 nM

## Cc1ncc(CNC(=O)c2ccc(CNS(=O)(=O)c3ccc(F)c(F)c3)cn2)s1 [compound 6]
Human GluN2D
  inhibition at 10 µM: -13 ± 10%
Human GluN2B
  inhibition at 10 µM: -1 ± 1%
Human GluN2A
  inhibition at 10 µM: > 95%
  IC50: 158 ± 30 nM

## Cc1ncc(CNC(=O)c2cnc(CNS(=O)(=O)c3ccc(F)c(Cl)c3)c(C)n2)s1 [compound 7]
Human GluN2D
  inhibition at 10 µM: -1 ± 2%
Human GluN2B
  inhibition at 10 µM: -8 ± 1%
Human GluN2A
  inhibition at 10 µM: > 95%
  IC50: 18 ± 2 nM

## Cc1ncc(CNC(=O)c2cnc(CNS(=O)(=O)c3ccc(Cl)c(F)c3)c(C)n2)s1 [compound 8]
Human GluN2D
  inhibition at 10 µM: 6 ± 6%
Human GluN2B
  inhibition at 10 µM: -7 ± 2%
Human GluN2A
  inhibition at 10 µM: > 95%
  IC50: 971 ± 242 nM

## Cc1ncc(CNC(=O)c2cnc(CN(C)S(=O)(=O)c3ccc(F)c(Cl)c3)c(C)n2)s1 [compound 10]
Human GluN2A
  inhibition at 10 µM: > 95%
  IC50: 242 ± 61 nM

## Ro 25–6981
[3]
  block of NMDA + glycine evoked currents in rat cortical neurons: 72 ± 5% and ~ 70%
